Results from patent publication US10233157B2, “SIK inhibitor for use in a method of treating an inflammatory and/or immune disorder” (Dana-Farber Cancer Institute, Inc., priority 2012, dated 2019).
“Also recorded” adds a separate entry of the source.

Assays:
[1] = system: protein kinases that possess a threonine residue at the gatekeeper site (Src, Lck, Yes, BTK, FGF and Ephrin receptors); experiment: Kinase profiling, kinases with threonine at the gatekeeper site; format: biochemical; conditions: kinase panel; 1 μM KIN112, 0.1 μM HG-9-91-01
Method: Recombinant SIK1, SIK2, SIK3 were expressed as GST-fusion proteins in HEK293 cells and purified on a glutathione-Sepharose column. […] FLAG-CRTC3 was immunoprecipitated using anti-FLAG M2 agarose, washed in kinase buffer (50 mM Tris/HCl pH 7.4, 10 mM Mg acetate, 0.1 mM EGTA, 2 mM DTT) and reactions initiated by adding 4 U/ml recombinant kinase with 0.1 mM ATP (specific activity 3000 cpm/pmol). Phosphorylation of CRTC3 was monitored by autoradiography as well as immunoblotting using phosphospecific antibodies raised against Ser162, Ser329 and Ser370. […] Kinase profiling was performed as previously described (7) and performed by the International Centre for Kinase Profiling (www.kinase-screen.mrc.ac.uk).

CRTC3 [2] = experiment: CRTC3 nuclear translocation (immunofluorescence, live imaging); format: cell-based; conditions: WT CRTC3
Source text: FIGS. 15A to 15C. SIK inhibitors induce the dephosphorylation of CRTC3 at Ser62, Ser162, Ser329 and Ser370 and its translocation to the nucleus. (FIG. 15A) HEK293 cells were transfected with FLAG-CRTC2, FLAG-CRTC3 or FLG-CRTC3[S162A]. Aliquots of the cell extracts were subjected to SDS-PAGE and immunoblotting using an antibody that recognizes CRTC2 phosphorylated at Ser171. […] (FIG. 15B) HEK293 cells were transfected with FLAG-CRTC3, FLAG-CRTC3[S62A/S162A/S329A/S370A] (termed CRTC3-4A) or with empty vector (FLAG-ev). […]. (FIG. 15C) Inhibition of SIKs promotes the translocation of endogenous CRTC3 to the nucleus. […].
RAW264.7 cells were grown on glass coverslips and treated with inhibitors for 1 h. Cells were then fixed for 10 min in 3.7% paraformaldehyde, permeabilized for 5 min using 0.1% Triton X-100 in PBS and blocked for 45 min using 3% BSA in PBS. Cells were stained with anti-CRTC3 (Abcam 1:200) and anti-α-tubulin (Santa Cruz 1:500) followed by anti-rabbit-alexa488 and anti-mouse-alexa594 (Invitrogen 1:500), respectively. Antibodies were diluted in blocking buffer and incubated with the cells for 45 min. […] Images were recorded every 30 s for 1.5 min prior to the addition of drug after which cells were imaged for a further 60 min.

NUAK isoforms = experiment: Kinase assays, NUAK isoforms; format: biochemical; conditions: in vitro
CRTC3 [3] = experiment: CRTC3 phosphorylation in macrophages (phosphoproteomics, immunoblotting); format: cell-based
Method: RAW264.7 cells were labelled using the Stable Isotope Labelling of Amino Acids in Cell Culture (SILAC) method. […] The cells were lysed in detergent-free lysis buffer (8 M urea, 50 mM Tris pH8.2, 10 mM glycerol 2-phosphate, 50 mM sodium fluoride, 5 mM sodium pyrophosphate, 1 mM EDTA, 1 mM sodium orthovanadate, 10 mM DTT, 1 mM PMSF, 1 μg/ml aprotinin, 1 μg/ml leupeptin), the extract clarified by centrifugation and protein concentration determined using the Bradford method. 2 mg of cell extract protein from each experimental condition were mixed in a 1:1:1 ratio and then alkylated with 50 mM iodoacetamide for 30 min. […] Phosphopeptides from these samples were enriched using a standard Fe^3+-IMAC enrichment protocol^32 and measured by LC-MS/MS. […] The data was analysed using MaxQUANT^33.
Cells were rinsed in ice-cold PBS and extracted in lysis buffer (50 mM Tris/HCl pH 7.4, 1 mM EDTA, 1 mM EGTA, 50 mM NaF, 5 mM sodium pyrophosphate, 10 mM sodium β-glycerol 1-phosphate, 1 mM dithiothreitol, 1 mM sodium orthovanadate, 0.27 M sucrose, 1% (v/v) Triton X-100, 1 μg/ml aprotinin, 1 μg/ml leupeptin and 1 mM phenylmethylsulphonyl fluoride). Cell extracts were clarified by centrifugation at 14000×g for 10 min at 4° C. and protein concentrations were determined using the Bradford assay. […]

In the case of `COc1ccc(N(C(=O)Nc2c(C)cccc2C)c2cc(Nc3ccc(N4CCN(C)CC4)cc3)ncn2)c(OC)c1` [HG-9-91-01, 1-(2,4-dimethoxyphenyl)-3-(2,6-dimethylphenyl)-1-(6-((4-(4-methylpiperazin-1-yl)phenyl)amino)pyrimidin-4-yl)urea], the “inhibition of protein kinases with a threonine residue at the gatekeeper site” value [1] is reported as “inhibited” and the CRTC3 nuclear translocation (CRTC3 [2]) is reported as “translocates to the nucleus”.

`O=C(NCCCNc1nc(Nc2cccc(CN3CCOCC3)c2)ncc1C1CC1)C1CCC1` [MRT67307] was tested, and the “inhibition of NUAK isoforms” value (NUAK isoforms) was “comparable potency to the IKK-related kinases”, the “phosphorylation of CRTC3” value (CRTC3 [3]; 2 μM MRT67307, Pam3CSK4-stimulated macrophages, phosphoproteomic study) was “robustly dephosphorylated at Ser62, Ser329 and Ser370; also recorded: blocked” and the “phosphorylation of CRTC3 at Ser370” value (CRTC3 [3]; LPS stimulation) was “blocked”.
